Assay results reported in patent publication US9670242B2, “Tetracyclic anthraquinone derivatives” (Tianjin Hemay Bio-Tech Co., Ltd, priority 2012, dated 2017).

Columns and labels:
Assay type in all cases: cell-based, human
[1] = test system: A375 cells; assay: A375 cell growth inhibition test (MTT assay); conditions: 72 h
Description: A375 Cell Growth Inhibition Test (MTT Assay)
(§1) II. Reagents and Consumable Materials
Culture medium: 90% DMEM+10% FBS (fetal calf serum); Pancreatin (0.25% (w/v) solution was formulated with PBS, 0.53 mM of EDTA was added in the formulation); PBS; 96-well culture plate.
(§2) 1. A plate (10 cm) of cells in logarithmic growth phase that were normally cultured was collected;
(§3) 2. The culture solution was sucked out. The plate was washed with 5 mL of PBS once or twice;
(§4) 3. PBS was sucked out. 1.5 mL of 0.25% pancreatin was added to the plate to infiltrate the cells for 1 min;
4. The culture plate was placed in an incubator. Digestion was carried out for about 5 min at 37° C.;
(§5) 5. 3 mL of complete culture solution was added to the culture plate to stop the digestion. The cells were carefully scoured with micropipette (1 ml) to give a uniform cell suspension. The suspension was implanted into a 96-well cell culture disc by 3000 cells/100 μL per well. The culture plate was incubated overnight under 5% CO2 at 37° C. In day 2, 100 μL of culture solution comprising a compound was added in each well. The plate was further incubated for 72 h under 5% CO2 at 37° C.;
(§6) 6. The culture solution was sucked out;
(§7) 7. 100 μL of serum-free culture solution containing 0.5 mg/mL MTT was added in each well. The plate was incubated for 3 h;
(§8) 8. The culture solution was carefully sucked out;
(§9) 9. 100 μL of DMSO was added in each well and vibrated to dissolve;
(§10) 10. OD values were determined at 490 nM.
(§11) IV. Results and Treatments
(§12) 1. Calculation of Relative Inhibition Ratio The inhibition ratio of a compound on cell growth=(PC−n)/(PC−NC)×100%
(§13) PC: OD values of cells after normal growth in control wells without a compound;
(§14) n: OD values of cells after growth in test wells with a compound;
(§15) NC: Background OD values of blank wells without a compound and cells.

[2] = test system: MCF-7 cells; assay: MCF-7 cell growth inhibition test (SRB assay); conditions: 73 h
Description: MCF-7 Cell Growth Inhibition Test (SRB Assay)
as §1
Culture medium: 90% EMEM+10% FBS; Pancreatin (0.25% (w/v) solution was formulated with PBS, 0.53 mM of EDTA was added in the formulation); PBS; 96-well culture plate.
as §2, §3
3. 1.5 mL of 0.25% pancreatin was added to the plate to infiltrate the cells;
4. The pancreatin was sucked out. The culture plate was placed in an incubator. Digestion was carried out for about 3 min at 37° C.;
as §5, with “5. 4” for “5. 3”, “(1 mL)” for “(1 ml)”, “uniform single” for “uniform”, “culture plate” for “culture disc”, “by 10000” for “by 3000”, “for 73” for “for 72”
6. The culture solution was sucked out. 100 uL of TCA fixed cells which were diluted to 10% were added to each well. The plate was kept in a refrigerator for 1 h at 4° C.
7. TCA stationary liquid was sucked out. Each well was washed with 150 μL of ddH2O five times;
8. After the stationary liquid was cleansed, the plate was dried in the air at the room temperature;
9. 60 μL of SRB staining solution was added in each well. The well was stained for 15 min at the room temperature;
10. The SRB staining solution was sucked out. Each well was washed with 150 μL of 1% glacial acetic acid five times;
11. After the SRB staining solution was cleansed, the plate was dried in the air at the room temperature;
12. 100 μL of 10 mM Tris was added in each well. The plate was vibrated to dissolve out SRB;
13. OD values were determined at 570 nM.
as §11
1. Calculation of Relative Inhibition Ratio The inhibition ratio of a compound on cell growth=(PC−n)/(PC−NC)×100% […]

[3] = test system: 786-O cells; assay: 786-O cell growth inhibition test (MTT assay); conditions: 72 h
Description: 786-O Cell Growth Inhibition Test (MTT Assay)
as §1
Culture medium: 90% RPMI1640+10% FBS (fetal calf serum); Pancreatin (0.25% (w/v) solution was formulated with PBS, 0.53 mM of EDTA was added in the formulation); PBS; 96-well culture plate.
as §2, §3, §4
4. The culture plate was placed in an incubator. Digestion was carried out for about 1 min at 37° C.;
as §5, with “mL)” for “ml)”, “2000” for “3000”
as §6, §7, §8, §9, §10, §11, §12, §13, §14, §15

[4] = test system: BxPc-3 cells; assay: BxPc-3 cell growth inhibition test (MTT assay); conditions: growth inhibition at 2000 nM, 70 h
Procedure, shortened: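 BxPC-3 human pancreatic cancer cells at 5000 per well in RPMI-1640 with 10% FBS were treated with compound from day 2 for 70 h at 37 °C, 5% CO2. Viability was measured by MTT (0.5 mg/mL, 3 h) with DMSO solubilisation and OD 490 nm. Inhibition ratio = (PC−n)/(PC−NC)×100%.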

[5] = test system: MDA-MB-453 cells; assay: MDA-MB-453 cell growth inhibition test (SRB assay); conditions: growth inhibition at 2000 nM, 69.5 h
Procedure, shortened: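 MDA-MB-453 cells (7000/well) in L15 with 10% FBS were seeded overnight, then exposed to compound for 69.5 h at 37 °C and 5% CO2. After TCA fixation and SRB staining, dye was solubilised in Tris and OD read at 570 nm. Inhibition = (PC−n)/(PC−NC)×100%.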

Compound	IC50 [1]	IC50 [2]	IC50 [3]	Inhibition Ratio (%) [4]	Inhibition Ratio (%) [5]
COc1cccc2c1C(=O)c1c(O)c3c(c(O)c1C2=O)CC(O)(C(=O)COC(=O)CCC(=O)O)CC3OC1CC(n2cccc2)C(O)C(C)O1 (stereo not shown) [Compound A, 3′-pyrrolyldoxorubicin-14-oxo-succinic acid monoester, reference compound]	207 nM	785 nM	180 nM	–	–
COc1cccc2c1C(=O)c1c(O)c3c(c(O)c1C2=O)CC(O)(C(=O)COC(=O)CCC(=O)NCCOCCO)CC3OC1CC(n2cccc2)C(O)C(C)O1 (stereo not shown) [Example 62]	–	–	110 nM	82.5%	83.7%
CC(=O)O.COc1cccc2c1C(=O)c1c(O)c3c(c(O)c1C2=O)CC(O)(C(=O)COC(=O)CCC(=O)NCCCN1CCN(C)CC1)CC3O[C@H]1C[C@H](n2cccc2)[C@H](O)[C@H](C)O1 (stereo partly drawn) [Example 81, 10-((3′-(pyrrol-1-yll)-2′,3′,6′-trideoxy-alphal-l-lyxo-hexylpyranyl)oxy)-7,8,9,10-tetrahydro-6,8,11-trihydroxy-13-oxo-14-(4-((3-(4-methylpiperazin-1-yl)propyl)amino)-4-oxo-butyrato)-1-methoxy-5,12-naphthalenedione acetate]	67 nM	225 nM	–	80.7%	72%
